Numbered stars: 1 amine (or outer) side, 2 acyl side, 3 side chain; on linkers, the order of the positions; unused ones are H or OH. Bridge positions count the residues as written; N and C are the ends. Square brackets hold non-standard residues; d marks the D form. Peptide text beside a SMILES is read from it. X1 = CC[C@H](C)[C@@H](N[*:1])[C@@H](O)CC(=O)O[C@H](C(=O)[C@H](C)C(=O)[*:2])C(C)C; NMeY = CN[C@@H](Cc1ccc(O)cc1)C(=O)O; dNMeL = CN[C@H](CC(C)C)C(=O)O
Experiments:
[1] = Cytotoxicity against mouse NIH/3T3 cells assessed as reduction in cell viability incubated for 4 days by SRB assay; assay type: toxicity, cell-based, NIH3T3
[2] = Inhibition of EIF1A in human Jurkat cells assessed as reduction in T-cell receptor-mediated IL-2 expression; assay type: cell-based
A549 [3] = experiment: Antiproliferative activity against human A549 cells assessed as cell growth inhibition incubated for 24 by 14C-thymidine incorporation assay; assay type: functional, cell-based
HCT-116 [4] = experiment: Antiproliferative activity against human HCT-116 cells assessed as cell growth inhibition incubated for 24 by 14C-thymidine incorporation assay; assay type: functional, cell-based
HCT-116 [5] = experiment: Antiproliferative activity against human HCT-116 cells assessed as cell growth inhibition; assay type: functional, cell-based
3T3-L1 = experiment: Cytotoxicity against mouse 3T3-L1 adipocyte assessed as inhibition of fat accumulation incubated for 30 mins; assay type: toxicity, cell-based; details: 3T3-L1, 0.5 h
[6] = Inhibition of EIF1A (unknown origin); set-up: species or system Homo sapiens
L1210 = experiment: Anticancer activity against mouse L1210 cells allografted in mouse assessed as increase in survival rate; assay type: functional
[7] = (§1) In vivo activation of dystrophin in mouse H2K mdx cells assessed as increase in production of dystrophin protein; assay type: functional
HT-29 = experiment: Antiproliferative activity against human HT-29 cells assessed as cell growth inhibition incubated for 3 days; assay type: functional, cell-based; details: HT-29, 72 h
A549 [8] = experiment: Antiproliferative activity against human A549 cells assessed as cell growth inhibition incubated for 3 days; assay type: functional, cell-based; details: A549, 72 h
P388 [9] = experiment: Inhibition of RNA synthesis in mouse P388 cells measured after 72 hrs; assay type: functional, cell-based
SK-MEL-28 = experiment: Antiproliferative activity against human SK-MEL-28 cells assessed as cell growth inhibition incubated for 3 days; assay type: functional, cell-based; details: SK-MEL-28, 72 h
P388 [10] = experiment: Antiproliferative activity against mouse P388 cells assessed as cell growth inhibition incubated for 3 days; assay type: functional, cell-based; details: P388, 72 h
P388 [11] = experiment: Inhibition of protein synthesis in mouse P388 cells measured after 72 hrs; assay type: functional, cell-based; details: P388, 72 h
P388 [12] = experiment: Inhibition of DNA synthesis in mouse P388 cells measured after 72 hrs; assay type: functional, cell-based; details: P388, 72 h
HeLa [13] = experiment: Antiproliferative activity against human HeLa cells assessed as cell growth inhibition; assay type: functional, cell-based
[14] = Antiproliferative activity against mouse JB6 Cl 41-5a cells assessed as cell growth inhibition; assay type: functional, cell-based
SARS-CoV-2 [15] = experiment: Antiviral activity against SARS-CoV-2 infected in African green monkey Vero E6 cells assessed as inhibition of viral replication; assay type: functional, organism-based; details: Severe acute respiratory syndrome coronavirus 2, Vero C1008
SARS-CoV-2 [16] = experiment: Antiviral activity against SARS CoV-2 clinical isolate 2019-nCoV infected with African green monkey Vero E6 cells by qRT-PCR analysis; assay type: functional, organism-based; details: Severe acute respiratory syndrome coronavirus 2, 2019-nCoV, Vero C1008
HeLa [17] = experiment: Antiproliferative activity against human HeLa cells assessed as cell growth inhibition by [35S] methionine incorporation assay; assay type: functional, cell-based
OCI-AML2 = experiment: Antiproliferative activity against human OCI-AML2 cells assessed as cell growth inhibition incubated for 48 hrs by MTS assay; assay type: functional, cell-based; details: OCI-AML2, 48 h
U-937 = experiment: Antiproliferative activity against human U-937 cells assessed as cell growth inhibition incubated for 48 hrs by MTS assay; assay type: functional, cell-based; details: U-937, 48 h
OCI-AML-3 = experiment: Antiproliferative activity against human OCI-AML-3 cells assessed as cell growth inhibition incubated for 48 hrs by MTS assay; assay type: functional, cell-based; details: OCI-AML-3, 48 h
HL-60 = experiment: Antiproliferative activity against human HL-60 cells assessed as cell growth inhibition incubated for 48 hrs by MTS assay; assay type: functional, cell-based; details: HL-60, 48 h
NB-4 = experiment: Antiproliferative activity against human NB-4 cells assessed as cell growth inhibition incubated for 48 hrs by MTS assay; assay type: functional, cell-based; details: NB-4, 48 h
[18] = test system: Cystic fibrosis transmembrane conductance regulator (Homo sapiens), P13569 [UNDEFINED MUTATION]; experiment: In vivo activation of human […]-G542X mutant xenografted in mouse model assessed as induction of […] channel expression at 34 mg/kg administered daily; assay type: functional, organism-based
Cystic fibrosis transmembrane conductance regulator (Homo sapiens), P13569 [UNDEFINED MUTATION], sequence (P13569 whole entry, looked up): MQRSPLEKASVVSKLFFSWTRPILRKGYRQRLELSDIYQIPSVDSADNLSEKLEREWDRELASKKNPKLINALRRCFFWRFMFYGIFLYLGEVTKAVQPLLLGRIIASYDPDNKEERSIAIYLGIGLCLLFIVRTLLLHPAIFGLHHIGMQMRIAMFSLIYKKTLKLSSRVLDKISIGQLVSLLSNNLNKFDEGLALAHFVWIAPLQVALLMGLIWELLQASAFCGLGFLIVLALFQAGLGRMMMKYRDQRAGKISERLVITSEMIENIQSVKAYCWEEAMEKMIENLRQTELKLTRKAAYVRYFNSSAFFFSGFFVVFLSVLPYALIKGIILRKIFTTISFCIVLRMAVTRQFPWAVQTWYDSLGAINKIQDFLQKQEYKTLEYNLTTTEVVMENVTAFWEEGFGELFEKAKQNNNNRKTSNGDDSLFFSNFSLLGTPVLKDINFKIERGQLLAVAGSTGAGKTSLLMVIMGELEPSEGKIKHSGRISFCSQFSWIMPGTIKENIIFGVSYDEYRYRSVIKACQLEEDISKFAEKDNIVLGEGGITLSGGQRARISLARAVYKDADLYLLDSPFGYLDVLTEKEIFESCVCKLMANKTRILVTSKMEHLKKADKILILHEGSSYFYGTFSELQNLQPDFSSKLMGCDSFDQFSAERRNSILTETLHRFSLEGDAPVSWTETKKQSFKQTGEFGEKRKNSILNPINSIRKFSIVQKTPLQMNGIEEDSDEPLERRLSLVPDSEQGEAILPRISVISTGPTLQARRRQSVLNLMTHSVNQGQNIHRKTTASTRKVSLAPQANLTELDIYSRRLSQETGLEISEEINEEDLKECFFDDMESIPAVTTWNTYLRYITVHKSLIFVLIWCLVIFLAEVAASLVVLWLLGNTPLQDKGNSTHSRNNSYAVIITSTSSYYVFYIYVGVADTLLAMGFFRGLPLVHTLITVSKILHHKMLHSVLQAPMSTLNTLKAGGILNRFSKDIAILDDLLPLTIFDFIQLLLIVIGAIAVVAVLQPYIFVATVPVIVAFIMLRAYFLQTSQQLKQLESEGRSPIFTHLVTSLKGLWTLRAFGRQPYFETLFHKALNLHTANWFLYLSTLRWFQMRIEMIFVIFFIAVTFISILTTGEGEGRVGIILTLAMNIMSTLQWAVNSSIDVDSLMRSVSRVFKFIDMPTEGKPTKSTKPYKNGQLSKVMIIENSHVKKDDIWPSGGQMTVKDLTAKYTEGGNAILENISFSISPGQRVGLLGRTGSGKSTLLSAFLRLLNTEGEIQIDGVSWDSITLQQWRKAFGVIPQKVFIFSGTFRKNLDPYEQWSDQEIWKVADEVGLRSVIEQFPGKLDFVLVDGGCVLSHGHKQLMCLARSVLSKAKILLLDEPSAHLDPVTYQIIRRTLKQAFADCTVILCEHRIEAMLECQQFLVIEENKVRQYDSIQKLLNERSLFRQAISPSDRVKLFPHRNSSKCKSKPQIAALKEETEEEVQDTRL

H2K mdx = experiment: as §1; assay type: functional

CONC(=O)[C@H]1[C@@H](O)[C@@]2(O)c3c(OC)cc(OC)cc3O[C@@]2(c2ccc(OC)cc2)[C@@H]1c1ccccc1 showed an IC50 at 4 days [1] of 0.009 µM.
C/C1=C/C=C\C(=O)O[C@H](/C=C(C)/C=C/C=C/CN(C)C)Cc2csc(n2)CCCCC(=O)O[C@H](C)C1 gave an IC50 [2] of 0.0008 µM.
COc1ccc([C@@]23Oc4cc(OC)cc(OC)c4[C@@]24NC(C)=N[C@@]4(O)[C@H](C(=O)N(C)OC)[C@H]3c2ccccc2)cc1 showed an IC50 at 4 days [1] of 0.002 µM.
Compound COc1cc(C[C@H]2NC(=O)[C@H](C(C)C)N(C)C(=O)/C=C\C[C@@H](OC)/C(C)=C/C=C/[C@@H](C)[C@@H](c3ccccc3)OC(=O)[C@H](C(C)C)NC2=O)ccc1O has an IC50 (A549 [3]) of 0.02 µM and an IC50 (HCT-116 [4]) of 0.049 µM.
In the case of CC[C@H](C)[C@H]1NC(=O)[C@@H]([C@H](O)C(C)C)NC(=O)[C@@H](C)N(C)C(=O)[C@H](C)N(C)C(=O)[C@H](CC(C)C)NC(=O)[C@H](CC(C)C)N(C)C(=O)[C@H](C)N(C)C1=O, the IC50 (HCT-116 [5]) is reported as 0.071 µM and the EC50 (3T3-L1) is reported as 0.02 µM.
For CC[C@H](C)[C@H]1NC(=O)[C@@H](NC(=O)[C@@H](CC(C)C)N(C)C(=O)[C@@H]2CCCN2C(C)=O)[C@@H](C)OC(=O)[C@H](Cc2ccc(OC)cc2)N(C)C(=O)[C@@H]2CCCN2C(=O)[C@H](CC(C)C)NC(=O)[C@@H](C)C(=O)[C@H](C(C)C)OC(=O)C[C@@H]1O (Ac-P[dNMeL]T[X1]LP[NMeY](Me); ester 3-C), the IC50 [6] was 0.1 µM.
CN1C(=O)N[C@H]2[C@@H]3NC(=O)c4ccc(Br)n4[C@@H]3C[C@]21O [AGELASTATIN A] gave a Survival (L1210) of 63%.
In the case of O=C(O)c1cccc(-c2noc(-c3ccccc3F)n2)c1 [ATALUREN], the Activity [7] is reported as 20%.
For CC[C@H](C)[C@H]1NC(=O)[C@@H](NC(=O)[C@@H](CC(C)C)NC)[C@@H](C)OC(=O)[C@H](Cc2ccc(OC)cc2)N(C)C(=O)[C@@H]2CCCN2C(=O)[C@H](CC(C)C)NC(=O)[C@@H](C)C(=O)[C@H](C(C)C)OC(=O)C[C@@H]1O [DIDEMNIN A] (H-[dNMeL]T[X1]LP[NMeY](Me); ester 2-C), the IC50 (HT-29) was 0.02 µM, the IC50 (A549 [8]) was 0.012 µM and the IC50 (P388 [9]; p388) was “Not Active”. It also gave an IC50 (SK-MEL-28) of 0.02 µM, an IC50 [6] of 0.4 µM and an IC50 (P388 [10]) of 0.01 µM. It also gave an IC50 (P388 [11]) of 0.4 µM and an IC50 (P388 [12]) of 1 µM.
Work on C=C1C[C@](OC)([C@H](O)C(=O)N[C@H]2OCO[C@H]3[C@@H]2O[C@H](C[C@H](O)CO)C(C)(C)[C@@H]3OC)O[C@H](C)[C@@H]1C [MYCALAMIDE A] yielded an IC50 (HeLa [13]) of 0.005 µM and an IC50 [14] of 0.001 µM.
COC(=O)C[C@](O)(CCCC(C)(C)O)C(=O)O[C@@H]1C(OC)=C[C@]23CCCN2CCc2cc4c(cc2[C@H]13)OCO4 [OMACETAXINE MEPESUCCINATE] gave an EC50 (SARS-CoV-2 [15]) of 0.06 µM.
For CC[C@H](C)[C@H]1NC(=O)[C@@H](NC(=O)[C@@H](CC(C)C)N(C)C(=O)[C@@H]2CCCN2C(=O)C(C)=O)[C@@H](C)OC(=O)[C@H](Cc2ccc(OC)cc2)N(C)C(=O)[C@@H]2CCCN2C(=O)[C@H](CC(C)C)NC(=O)[C@@H](C)C(=O)[C@H](C(C)C)OC(=O)C[C@@H]1O [PLITIDEPSIN], the IC50 (HT-29) was 0.0005 µM, the IC50 (A549 [8]) was 0.0002 µM and the IC50 (P388 [9]; Mus musculus, P388, 72 h, read-out: IC50) was > 1 µM. It also gave an IC50 (SK-MEL-28) of 0.0005 µM, an IC50 [6] of 0.5 µM and an IC50 (P388 [10]) of 0.0002 µM. The IC50 (P388 [11]) was 0.5 µM and the IC50 (P388 [12]) was 0.1 µM.
Compound NC(=O)c1ncn([C@@H]2O[C@H](CO)[C@@H](O)[C@H]2O)n1 [RIBAVIRIN] has an EC50 (SARS-CoV-2 [16]) of 110 µM.
COc1ccc([C@@]23Oc4cc(OC)cc(OC)c4[C@]2(O)[C@H](O)[C@H](C(=O)N(C)C)[C@H]3c2ccccc2)cc1 [ROCAGLAMIDE] showed an IC50 (HeLa [17]) of 0.1 µM.
COC(=O)[C@H]1[C@@H](O)[C@@]2(O)c3c(OC)cc(O[C@@H]4O[C@@H]([C@H](O)CO)CO[C@H]4OC)cc3O[C@@]2(c2ccc(OC)cc2)[C@@H]1c1ccccc1 [SILVESTROL] showed an IC50 (OCI-AML2) of 0.004 µM, an IC50 (U-937) of 0.004 µM and an IC50 (OCI-AML-3) of 0.004 µM. It also gave an IC50 (HL-60) of 0.004 µM, an IC50 (HeLa [17]) of 0.02 µM and an IC50 (NB-4) of 0.004 µM.
Compound GENTAMICIN has an Activity [18] of 10% and an Activity (H2K mdx) of 10%.

Reference: ChEMBL document CHEMBL5230139, “Inhibitors of Eukaryotic Translational Machinery as Therapeutic Agents” (J Med Chem, 2021)
